Measurements reported in patent publication US20160046592A1, “PHARMACEUTICAL COMPOSITION FOR THE TREATMENT OF DIABETES” (Ajinomoto Co., Inc., priority 2013, published 2016).
Counter-ions that a name gives are not always drawn.

These compounds were tested against T1, human GYS1 (glycogen synthase) (Homo sapiens, UniProt P13807) (assay: Measurement of glycogen synthase activity). Details: concentration causing 50% increase in relative activity; 100% = compound of Example 1 of WO/2011/058154 at 10 μM; 10 mM Glucose-6-phosphate; 37° C. for 25 minutes (Examples 1 to 61 and 67 to 82) or 20 minutes (Examples 62 to 66); absorbance at 340 nm.
T1 construct: made in house; host or cells: HEK293T
T1 sequence (P13807 1-737): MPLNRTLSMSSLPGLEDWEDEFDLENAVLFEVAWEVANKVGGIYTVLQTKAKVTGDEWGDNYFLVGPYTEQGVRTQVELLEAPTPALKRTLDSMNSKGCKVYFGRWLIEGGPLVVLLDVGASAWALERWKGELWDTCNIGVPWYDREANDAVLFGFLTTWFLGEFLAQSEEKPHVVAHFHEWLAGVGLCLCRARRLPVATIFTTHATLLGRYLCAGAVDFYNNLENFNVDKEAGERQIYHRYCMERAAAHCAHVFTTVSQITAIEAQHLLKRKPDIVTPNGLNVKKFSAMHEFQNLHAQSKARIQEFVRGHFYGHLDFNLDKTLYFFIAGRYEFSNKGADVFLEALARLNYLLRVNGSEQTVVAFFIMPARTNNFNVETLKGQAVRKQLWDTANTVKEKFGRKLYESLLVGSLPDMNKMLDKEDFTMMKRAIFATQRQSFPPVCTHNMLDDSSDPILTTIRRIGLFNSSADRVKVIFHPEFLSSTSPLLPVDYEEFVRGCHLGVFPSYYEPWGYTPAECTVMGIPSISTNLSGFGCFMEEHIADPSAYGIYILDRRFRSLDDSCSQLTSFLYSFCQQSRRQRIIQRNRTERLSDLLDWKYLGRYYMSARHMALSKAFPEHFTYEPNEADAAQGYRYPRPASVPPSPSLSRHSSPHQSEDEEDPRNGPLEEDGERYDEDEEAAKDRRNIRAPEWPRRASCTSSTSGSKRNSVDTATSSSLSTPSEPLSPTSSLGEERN
Type: biochemical
Experimental: A human GYS1 expression plasmid (pCDNA3.1(+)-hGYS1) was constructed by the following method. By using a human skeletal muscle cDNA of Human MTC Panel I (Takara Bio Inc., 636742) as a template, a human GYS1 gene was amplified by a PCR method using cloning primers (Forward Primer: ATGCCTTTAAACCGCAC, Reverse Primer: TTAGTTACGCTCCTCGC). By using the amplified human GYS1 sequence as a template, restriction enzyme sequences were added by a PCR method using sub-cloning primers (Forward Primer: […], and Reverse Primer: […]), and then the human GYS1 gene was introduced between Xho I and Xba I sites of pCDNA3.1(+) (Invitrogen, V790-20).
Glycogen synthase was prepared by the following method. Human kidney-derived HEK293T cells were seeded in a dish (Thermo Fisher Scientific K.K., 168381) by using a 10% FBS-containing DMEM (Nacalai Tesque, Inc., 0845874) medium, and cultured overnight. Then, by using Lipofectamine LTX (Invitrogen, 15338-100), the cells were transfected with the human GYS1 expression vector according to the attached manual. After culturing under conditions of 37° C. and 5% CO2 for 2 days, the resultant was lysed in a lysis buffer (50 mM Tris-HCl (pH 8.0), 10 mM EDTA, 2 mM EGTA, 100 mM NaF, 1 mM PMSF, 1 mM DTT, and 1× Complete (Roche, 1873580)), homogenized, and then centrifuged at 16000×g at 4° C. for 15 minutes. The precipitated fraction re-dissolved by adding the lysis buffer was used as a glycogen synthase for evaluation.
The glycogen synthase activity was measured by the following method. To a polystyrene 96-well plate, solutions each containing 30 mM glycylglycine (pH 7.3), 40 mM KCl, 20 mM MgCl2, 9.2% DMSO containing one of the test compounds at one of various concentrations, and 10 mM Glucose-6-phosphate (Sigma-Aldrich, G7879) were added at 12 μL/well.
Next, a substrate solution containing 30 mM glycylglycine (pH 7.3), 4.3 mg/mL glycogen (Sigma-Aldrich, G8876), 21.6 mM UDP-glucose (Sigma-Aldrich, U4625), 21.6 mM phosphoenolpyruvic acid (Sigma-Aldrich, P0564), and 4.05 mM NADH (Sigma-Aldrich, N8129) was added at 18 μL/well.
Moreover, an enzyme solution containing 50 mM Tris-HCl (pH 8.0), 27 mM DTT (NACALAI TESQUE, INC., 14128-04), 0.2 mg/mL bovine serum albumin, 0.17 mg/mL glycogen synthase, and 1.5 μL pyruvate kinase/lactate dehydrogenase solution (Sigma-Aldrich, P0294) was added at 18 μL/well to prepare reaction solutions. After the reaction solutions were incubated (at 37° C. for 25 minutes for Examples 1 to 61 and 67 to 82 or at 37° C. for 20 minutes for Examples 62 to 66), the absorbance at 340 nm was measured by using Benchmark Plus (Bio-Rad Laboratories, Inc.).
The activity of each test compound was calculated by the following method. The absorbance at 340 nm of the reaction solution containing the compound and DMSO was subtracted from the absorbance at 340 nm of a reaction solution not containing the compound but containing only DMSO to calculate the change (ΔA340) in absorbance. The relative activity (%) of the test compound at each of the various concentrations was calculated, where the ΔA340 of a reaction solution containing the compound of Example 1 of WO/2011/058154 at a final concentration of 10 μM was taken as 100%. EC50 representing the concentration of the compound at which an increase in the relative activity by 50% was caused was calculated using XLfit (idbs).

Going from NC(=O)C1CC[C@@H](C(=O)O)N1C(=O)c1cccc(COc2ccc(-c3cc(F)c(F)c4ccoc34)cc2)c1 (single isomer, unassigned) [Example 4, (2S,5R) or (2S,5S)-5-Carbamoyl-1-[3-[[4-(4,5-difluorobenzofuran-7-yl)phenoxy]methyl]benzoyl]pyrrolidine-2-carboxylic Acid] to CSc1cc(F)c(F)cc1-c1ccc(OCc2cccc(C(=O)N3C(C(N)=O)CC[C@H]3C(=O)O)c2)cc1 (single isomer, unassigned) [Example 57, (2S,5R) or (2S,5S)-5-Carbamoyl-1-[3-[[4-(4,5-difluoro-2-methylsulfanyl-phenyl)phenoxy]methyl]benzoyl]pyrrolidine-2-carboxylic Acid], the EC50 rises from less than 3 nM to 10 nM.

Compared with CSc1cc(F)c(F)cc1-c1ccc(OCc2cccc(C(=O)N3C(C(N)=O)CC[C@H]3C(=O)O)c2)cc1 (single isomer, unassigned) [Example 58, (2S,5S) or (2S,5R)-5-Carbamoyl-1-[3-[[4-(4,5-difluoro-2-methylsulfanyl-phenyl)phenoxy]methyl]benzoyl]pyrrolidine-2-carboxylic Acid], NC(=O)C1CC[C@@H](C(=O)O)N1C(=O)c1cccc(COc2ccc(-c3cc(F)c(F)c4ccoc34)cc2)c1 (single isomer, unassigned) [Example 76, (2S,5S) or (2S,5R)-5-Carbamoyl-1-[3-[[4-(4,5-difluorobenzofuran-7-yl)phenoxy]methyl]benzoyl]pyrrolidine-2-carboxylic Acid] is 3-fold higher in EC50: 7.3 nM for the first, 22 nM for the second. The first is the more potent here.

Compared with COC1CCN(C(=O)c2cccc(COc3ccc(-c4cc(F)c(F)cc4SC)cc3)c2)C1C(=O)O (stereo in doubt) [Example 33, (2S,3S)-1-[3-[[4-(4,5-Difluoro-2-methylsulfanyl-phenyl)phenoxy]methyl]benzoyl]-3-methoxy-pyrrolidine-2-carboxylic Acid], CSc1cc(F)c(F)cc1-c1ccc(OCc2cccc(C(=O)N3CC[C@H](O)[C@H]3C(=O)O)c2)cc1 [Example 5, (2S,3S)-1-[3-[[4-(4,5-Difluoro-2-methylsulfanyl-phenyl)phenoxy]methyl]benzoyl]-3-hydroxy-pyrrolidine-2-carboxylic Acid] is lower in EC50: 21 nM for the first, less than 10 nM for the second. The second is the more potent here.

NC(=O)CN(CC(=O)O)C(=O)c1cccc(COc2ccc(-c3cc(F)c(F)c4ccoc34)cc2)c1 [Example 1, 2-[(2-Amino-2-oxo-ethyl)-[3-[[4-(4,5-difluorobenzofuran-7-yl)phenoxy]methyl]benzoyl]amino]acetic Acid] and CNC(=O)CN(CC(=O)O)C(=O)c1cccc(COc2ccc(-c3cc(F)c(F)c4ccoc34)cc2)c1 [Example 15, 2-[[3-[[4-(4,5-Difluorobenzofuran-7-yl)phenoxy]methyl]benzoyl]-[2-(methylamino)-2-oxo-ethyl]amino]acetic Acid] are the same in EC50: 13 nM for the first, 13 nM for the second.

First: O=C(O)[C@@H]1[C@@H](O)CCN1C(=O)c1cccc(COc2ccc(-c3cc(F)c(F)c4ccoc34)cc2)c1 [Example 2, (2S,3S)-1-[3-[[4-(4,5-Difluorobenzofuran-7-yl)phenoxy]methyl]benzoyl]-3-hydroxy-pyrrolidine-2-carboxylic Acid]
Second: O=C(O)[C@@H]1[C@H](O)CCN1C(=O)c1cccc(COc2ccc(-c3cc(F)c(F)c4ccoc34)cc2)c1 [Example 3, (2S,3R)-1-[3-[[4-(4,5-Difluorobenzofuran-7-yl)phenoxy]methyl]benzoyl]-3-hydroxy-pyrrolidine-2-carboxylic Acid]
The EC50 of the first is 3.7-fold lower: 4.3 nM for the first, 16 nM for the second.

First: COCCN(CC(=O)O)C(=O)c1cccc(COc2ccc(-c3cc(F)c(F)cc3SC)cc2)c1 [Example 6, 2-[[3-[[4-(4,5-Difluoro-2-methylsulfanyl-phenyl)phenoxy]methyl]benzoyl]-(2-methoxyethyl)amino]acetic Acid]
Second: CSc1cc(F)c(F)cc1-c1ccc(OCc2cccc(C(=O)N(CCC#N)CC(=O)O)c2)cc1 [Example 7, 2-[2-Cyanoethyl-[3-[[4-(4,5-difluoro-2-methylsulfanyl-phenyl)phenoxy]methyl]benzoyl]amino]acetic Acid]
The EC50 of the first is 1.5-fold higher: 17 nM for the first, 11 nM for the second.

CS(=O)(=O)CCN(CC(=O)O)C(=O)c1cccc(COc2ccc(-c3cc(F)c(F)c4ccoc34)cc2)c1 [Example 8, 2-[[3-[[4-(4,5-Difluorobenzofuran-7-yl)phenoxy]methyl]benzoyl]-(2-methylsulfonylethyl)amino]acetic Acid] and CN(C)CCN(CC(=O)O)C(=O)c1cccc(COc2ccc(-c3cc(F)c(F)c4ccoc34)cc2)c1 [Example 13, 2-[[3-[[4-(4,5-Difluorobenzofuran-7-yl)phenoxy]methyl]benzoyl]-(2-dimethylaminoethyl)amino]acetic Acid Trifluoroacetate] are the same in EC50: 15 nM for the first, 15 nM for the second.

O=C(O)CN(CC1CCOCC1)C(=O)c1cccc(COc2ccc(-c3cc(F)c(F)c4ccoc34)cc2)c1 [Example 9, 2-[[3-[[4-(4,5-Difluorobenzofuran-7-yl)phenoxy]methyl]benzoyl]-(tetrahydropyran-4-ylmethyl)amino]acetic Acid] and O=C(O)CN(CC1CCNCC1)C(=O)c1cccc(COc2ccc(-c3cc(F)c(F)c4ccoc34)cc2)c1 [Example 12, 2-[[3-[[4-(4,5-Difluorobenzofuran-7-yl)phenoxy]methyl]benzoyl]-(4-piperidylmethyl)amino]acetic Acid Trifluoroacetate] are the same in EC50: 16 nM for the first, 16 nM for the second.

CSc1cc(F)c(F)cc1-c1ccc(OCc2cccc(C(=O)N(CC(N)=O)CC(=O)O)c2)cc1 [Example 10, 2-[(2-Amino-2-oxo-ethyl)-[3-[[4-(4,5-difluoro-2-methylsulfanyl-phenyl)phenoxy]methyl]benzoyl]amino]acetic Acid] and CN(C)C(=O)CN(CC(=O)O)C(=O)c1cccc(COc2ccc(-c3cc(F)c(F)c4ccoc34)cc2)c1 [Example 11, 2-[[3-[[4-(4,5-Difluorobenzofuran-7-yl)phenoxy]methyl]benzoyl]-[2-(dimethylamino)-2-oxo-ethyl]amino]acetic Acid] are within 1.5-fold of each other in EC50: 7.2 nM for the first, 10 nM for the second.

Work on Cc1coc2c(-c3ccc(OCc4cccc(C(=O)N(CCS(C)(=O)=O)CC(=O)O)c4)cc3)cc(F)c(F)c12 [Example 14, 2-[[3-[[4-(4,5-Difluoro-3-methyl-benzofuran-7-yl)phenoxy]methyl]benzoyl]-(2-methylsulfonylethyl)amino]acetic Acid] yielded an EC50 of 15 nM.
